Where two headings read alike, the source gives them in different places.
Legend:
[1] = system: human respiratory syncytial virus (rgRSV30); assay: RSV plaque assay after 30 min exposure to 160 ppm gNO; assay type: cell-based; conditions: single 30 min exposure to 160 ppm gNO; starting 500 PFU
Method: The efficacy of treating viral infection by respiratory syncytial virus by the methods presented herein was tested by exposure for 30 minutes of human respiratory syncytial virus (rgRSV30) to a gas mixture containing 160 ppm nitric oxide, using standard plaque assay as described hereinabove.
FIGS. 3A-D present the data obtained in the experiment using tissue culture samples harboring human rgRSV30, coupled to a green fluorescent protein, wherein the control experiment the samples were exposed to a ambient air (data not shown), and the tested samples having a starting viral level of 2000 PFU (FIG. 3A), 1000 PFU (FIG. 3B) and 500 PFU (FIG. 3C), were exposed to 160 ppm gNO for 30 minutes, whereas FIG. 3D presents a comparative bar plot comparing the control to test results.

methemoglobin (SpMet) = assay: Phase I safety study: methemoglobin (SpMet) by pulse oximeter; assay type: in vivo, human
Method: (§1) After obtaining informed consent, treatment was initiated within 5 days of enrollment. Subjects were housed in a hospital ward and received 160 ppm gNO for 30 minutes every four hours (Q4h), five times a day, for five consecutive days by inhalation. Subjects returned for follow-up evaluations 3, 7 and 21 days after the final gNO administration. Subject safety was determined by monitoring vital signs, methemoglobin levels, lung function, blood chemistry, hematology, prothrombin time, inflammatory cytokine/chemokines levels and endothelial activation. These parameters were compared to baseline and at various time-points during and after gNO administration.
The levels of gNO, NO2, O2 and methemoglobin were monitored during the administration of gNO. The target gas mixture was 160 ppm gNO with a nitrogen dioxide (NO2) level of less than 5 ppm and an oxygen (O2) level ranging from 21% to 25%. Inspiratory NO, NO2 and O2 levels were continuously monitored by sampling from the mouthpiece sample port located about 6 millimeters from the mouth of the subject with an AeroNOx (Pulmonox, AB, Canada) NO, NO2 and O2 electrochemical analyzer. Delivery safety was determined by the number of occasions that NO2 exceeded 5 ppm, gNO exceeding 10% variation and O2 dropping below 20% during gNO administration. A commercially available noninvasive pulse oximeter (Rad 57, Masimo Corporation, USA) was used to measure saturation levels at the periphery of methemoglobin (SpMet).
(§2) These parameters were measured continuously during every gNO administration course and for 3.5 hours after the first treatment of the day. Daily serum samples were collected and frozen at −80° C. and the serum […] level was measured using the Griess reagent.
FIGS. 4A-B present results of monitoring methemoglobin levels before, during and after inhalation of 160 ppm of gaseous nitric oxide by 10 healthy human individuals, undergone 5 gNO administration courses daily, each lasting 30 minutes, for 5 consecutive days, while methemoglobin levels were measured using a pulse oximeter, wherein FIG. 4A is a plot of methemoglobin levels by percents as a function of time as measured before (time point 0), during 250 individual 30 minutes gNO administration courses (time interval of 0 to 30 minutes), after the courses (time interval of 30 to 60 minutes) and at 120 minutes, 180 minutes and 240 minutes after gNO administration was discontinued, and FIG. 4B is a plot of methemoglobin levels by percents as a function of time as measured at the beginning and end of 30 minutes gNO administration courses given over the course of 5 days, and followed 8, 12 and 26 days after gNO administration was discontinued.

[2] = Phase I safety study: serum nitrite/nitrate by Griess reagent; assay type: in vivo, human; conditions: 160 ppm gNO 30 min, 5 times a day, 5 days
Method: as §1, §2

S. aureus (ATCC) = conditions: 200 ppm gNO; saline; cited from earlier work
MRSA = conditions: 200 ppm gNO; saline; cited from earlier work
Serracia sp. = conditions: 200 ppm gNO; saline; cited from earlier work
Klebsiella sp. #1 = conditions: 200 ppm gNO; saline; cited from earlier work
Klebsiella sp. #2 = conditions: 200 ppm gNO; saline; cited from earlier work
Klebsiella sp. #3 = conditions: 200 ppm gNO; saline; cited from earlier work
Enterobacter sp. = conditions: 200 ppm gNO; saline; cited from earlier work
Acinetobacter sp. = conditions: 200 ppm gNO; saline; cited from earlier work
Group B Streptococci = conditions: 200 ppm gNO; saline; cited from earlier work
Mycobacterium = conditions: 200 ppm gNO; saline; cited from earlier work
[3] = system: P. aeruginosa and S. aureus; conditions: cited from earlier work
[4] = cited from earlier work
methemoglobin (MetHb) = conditions: healthy humans, cited from earlier work
[5] = cited from earlier work; for mortality: 6 h/day, groups of 10 rats
[6] = system: Pseudomonas aeruginosa pneumonia; conditions: 160 ppm gNO, intermittent 30 minute exposures; cited from earlier work
[7] = continuous delivery of 80 ppm; cited from earlier work

For `[N]=O` [gNO, nitric oxide], the viral viability [1] was “substantially nullified”, the “residual increase in SpMet at follow-up” value (methemoglobin (SpMet); 3, 7 and 21 days after final exposure) was “did not show any residual increase” and the “time for SpMet to return to baseline” value (methemoglobin (SpMet); after 30 min 160 ppm gNO) was 3.5 h. The “highest SpMet” value (methemoglobin (SpMet); end of the 30 minutes treatment, 160 ppm gNO, baseline 0.16 (SD=0.10)) was 2.5%, the “accumulative effect on SpMet” value (methemoglobin (SpMet); five daily treatments for five consecutive days) was “no accumulative or lingering effect” and the “average increase of SpMet” value (methemoglobin (SpMet); single 30 min treatment course, 160 ppm gNO, SD=0.08) was 0.9%. For the same compound, the “serum nitrite/nitrate levels vs baseline” value [2] was “no significant differences”, the LD100 (S. aureus (ATCC)) was 4 h and the “Latent Period” value (S. aureus (ATCC)) was 3 h. The “−2.5 Log10” value (S. aureus (ATCC)) was 3.3 hours, the LD100 (MRSA) was 5 h and the “Latent Period” value (MRSA) was 3 h. The “−2.5 Log10” value (MRSA) was 4.2 hours, the LD100 (Serracia sp.) was 6 h and the “Latent Period” value (Serracia sp.) was 4 h. The “−2.5 Log10” value (Serracia sp.) was 4.9 hours, the LD100 (Klebsiella sp. #1) was 6 h and the “Latent Period” value (Klebsiella sp. #1) was 3 h. For the same compound, the “−2.5 Log10” value (Klebsiella sp. #1) was 3.5 hours, the LD100 (Klebsiella sp. #2) was 5 h and the “Latent Period” value (Klebsiella sp. #2) was 2 h. The “−2.5 Log10” value (Klebsiella sp. #2) was 4.1 hours, the LD100 (Klebsiella sp. #3) was 6 h and the “Latent Period” value (Klebsiella sp. #3) was 3 h. The “−2.5 Log10” value (Klebsiella sp. #3) was 5.1 hours, the LD100 (Enterobacter sp.) was 6 h and the “Latent Period” value (Enterobacter sp.) was 4 h. The “−2.5 Log10” value (Enterobacter sp.) was 5.3 hours, the LD100 (Acinetobacter sp.) was 6 h and the “Latent Period” value (Acinetobacter sp.) was 4 h. The “−2.5 Log10” value (Acinetobacter sp.) was 5 hours, the LD100 (Group B Streptococci) was 2 h and the “Latent Period” value (Group B Streptococci) was 1 h. For the same compound, the “−2.5 Log10” value (Group B Streptococci) was 1.5 hours, the LD100 (Mycobacterium) was 10 h and the “Latent Period” value (Mycobacterium) was 7 h. For the same compound, the “−2.5 Log10” value (Mycobacterium) was 9.2 hours, the “survival (downward bactericidal trend)” value ([3]; 50-160 ppm gNO vs medical air, agar plates) was 5-10% and the “time required to achieve >90% reduction of colony formation” value ([3]; gNO greater than 120 ppm) was 8 to 12 h. For the same compound, the “reduction of colony formation” value ([3]; levels of gNO greater than 120 ppm, agar plates) was “greater than 90%”, the “radius of action from site of origin” value ([4]; in vivo) was “approximately 200 microns” and the “nitrate excreted in the urine, share of nitric oxide dose inhaled” value ([4]; predominant metabolite) was “more than 70%”. For the same compound, the MetHb level (methemoglobin (MetHb); gNO 128 ppm for 3 hours) was over 5%, the MetHb level (methemoglobin (MetHb); gNO 512 ppm for 55 minutes) was over 5% and the “animals that died during the first 1-2 days” value ([5]; 300 ppm gNO, group of 10 rats) was “Six”. The mortality ([5]; 400 ppm gNO) was “all of the animals died on the first day”, the mortality ([5]; 500 ppm gNO) was “all of the animals died on the first day” and the MetHb level ([5]; 500 ppm gNO) was 67 percents. The “pulmonary bioburden and leukocyte infiltration” value [6] was “effective to reduce the pulmonary bioburden and leukocyte infiltration” and the NO2 level [7] was 2.6 ppm.

Source: patent publication US20150174158A1, “[…] NITRIC OXIDE FOR TREATING RESPIRATORY DISEASES” (Advanced Inhalation Therapies (AIT) Ltd., priority 2012, published 2015)
